Source: US20240226165A1, “Methods of Producing Improved Immune Cell Populations” (Prescient Therapeutics Ltd, priority 2021, published 2024)
Entries after “also recorded” stand apart in the source; their conditions may differ.

Columns and labels:
[1] = Immune subsets in spleen and tumour, MC-38-hHer2 model; type: in vivo, mouse; conditions: TCN-P as adjuvant in the presence of CAR-T-cells
Excerpt: Blood of mice was collected directly into EDTA-containing tube via submandibular bleeding at day 8-9 post-treatment. At the experimental endpoint, various organs including tumour, draining lymph node (dLN) and spleen were collected immediately after euthanasia. Single cell suspension from the dLN and spleen were achieved by processing these organs through a 70 μm filter. For splenocytes, red blood cells were lysed with ACK lysis buffer. Solid tumours were manually sliced and digested with DMEM containing 1 mg mL^−1 type IV collagenase and 0.02 mg mL^−1 DNAse for 30 mins at 37° C. in a rocking incubation at 120 r.p.m. Digestion was neutralised with DMEM and processed through a 70 μm filter and resuspended in either FACS buffer or complete RPMI media. […]
Cells were blocked for 15 mins at room temperature with Fc receptor block (clone 2.4G2 of the hybridoma supernatant diluted 1:50 with FACS buffer). […] The number of target T-cell population was calculated by using: the number of input beads in the sample/bead events×events of targeted population.

human CAR-T-cells [2] = test: Flow cytometry phenotyping of human CAR-T-cells from PBMC donors; type: cell-based
Procedure: Human PBMCs were extracted from buffy packs (Australian Red Cross Blood Service). They were activated using anti-CD3 antibody (OKT3) for 2 days before transduction for 48 hours, all in the presence of IL-2.
Buffy coats from three donors were processed to isolate PBMCs, where 50 million PBMCs were cultured for 2 days in the presence of media containing anti-CD3 antibodies (OKT3, 1.5 μg per mL) and recombinant IL-2 (600 U/mL). […] Samples were collected either 24 or 72 hours later.

human CAR-T-cells [3] = test: Mass spectrometry of cellular proteome; type: cell-based; conditions: treatment of PBMCs
Excerpt: At each time point, cells were collected and washed three times with cold DPBS before cell lysis for global proteomic analysis.
Cells were homogenised/solubilised containing protease and phosphatase inhibitor (HALT) by tip-probe sonication, quantified, normalized and reduced (dithiothreitol, DTT), alkylated (iodoacetamide), before Sera-Mag Speed Bead-based protein digestion with LysC (enzyme:substrate 1:100, Wako Pure Chemical Industries) trypsin (enzyme:substrate 1:50). […] Peptides desalted (SDB-RPS Stage-Tips), and analysed for global cellular proteome.
Spectra acquired in data dependent acquisition on an Orbitrap Q-Exactive HF-X mass spectrometer coupled to an Easy-nLC 1200 (Thermo Fisher Scientific) ultra-high pressure liquid chromatography (UHPLC) pump. […] The most intense MS1 ions were selected for MS2 analysis, fragmented by higher-energy collisional dissociation with normalized collision energy of 33. Precursors were filtered according to charge state≥2, AGC set at 1e5 for MS/MS, with monoisotopic peak used.
Mass spectra were pre-processed and processed using MaxQuant (1.6.14). […]
For further data analysis, the normalized intensities were converted into log 2 ratios of the intensities over the median intensity measured for each protein across each sample group, with statistical analyses performed using Student's T-test or ANOVA (p-value<0.05 was considered significant). […]

murine CAR-T-cells = test: Flow cytometry phenotyping of murine CAR-T-cells after manufacturing; type: cell-based, mouse
Excerpt: (§1) Mouse splenocytes were activated using CD3/CD28 antibodies and cultured in the presence of recombinant IL-2 and IL-7 for 24 hrs prior to transduction with CAR-T vectors.
(§2) Cells were stained using fluorochrome labelled antibodies against CD4, CD8, CD44, CD62L to phenotype the murine CAR-T-cells following manufacturing. Human CAR-T-cells were phenotyped using fluorochrome-conjugated antibodies against CD4, CD8, CD45RA, CD45RO, CD44, CD62L, CCR7, CD27, PD-1 and CD69. A fixable live/dead dye was used to distinguish between live or dead cells.
Splenocytes from C57BL/6 donor mice were activated with 1 μg mL^−1 anti-CD3, 1 μg mL-1 anti-CD28 in the presence of IL-2 and 200 pg mL-1 IL-7 for 1 day then ficoll gradient treatment. Cells were transduced in plates coated with 1 μg mL of retronectin using supernatant produced from a GP+86 LXSN-anti-Her2 CAR packaging cell line. The transduced cells were then expanded in complete RPMI with the same concentration of IL-2 and IL-7 with or without 5 μM of PTX-200. Fresh IL-2 and IL-7 in complete media were added to all CAR-T-cells 2 days post-transduction.

MC-38-hHer2 = MC-38-hHer2 colon cancer model in hHer2 transgenic mice; type: in vivo, mouse
Procedure: C57BL/6J wildtype (WT) and human Her2 (hHer2) transgenic mouse lines were all in bred and maintained at the Peter MacCallum Cancer Centre (Victoria, Australia). Mice between the age of 6 and 16 weeks were gender-matched and randomised into different treatment groups.
Her2 transgenic recipients were either injected subcutaneously with 2.5×10^5 of MC38-hHer2 or 2.5×10^5 of E0771-hHer2 into the mammary fat pad with. Once the tumours become palpable and they were measured using a manual caliper and tumour area calculated in millimetres squared (mm^2, length×width). On day 6-7 post-tumour inoculation, tumour-bearing Her2+ mice were ranodmised to have an average tumour size of 20 mm^2, 20×10^6 of CAR-transduced T-cells were adoptively transferred into these recipients. 50 000 U of IL-2 was administered via intraperitoneal injection 5 times over the next 2 days. Tumour sizes were measured and monitored every 2-3 days until their tumour size exceed 120 mm^2 or until the tumour-bearing mice reached a designated experimental time point.

murine T-cells = conditions: extremely low concentrations
Excerpt: as §1, §2

Compound: CN1N=C(N)c2cn([C@@H]3O[C@H](COP(=O)(O)O)[C@@H](O)[C@H]3O)c3ncnc1c23 [TCN-P, triciribine 5′-monophosphate]
- reduction of intratumoral Tregs [1]: 50%
- effector T (TE) cells in CD8+ CAR-T-cells (human CAR-T-cells [2]; 24 hrs, n=3 donors, control/vehicle 8%): 5%
- Central memory T (TCM) cells (CD45RO+ CD62L+) in CD8+ CAR-T-cells, mean (human CAR-T-cells [2]; 24 hrs, n=3 donors, control/vehicle 11%): 17%
- Central memory T (TCM) cells (CD45RO+ CD62L+) in CD8+ CAR-T-cells (human CAR-T-cells [2]; 3 days, after 24 hour treatment, n=3, control/vehicle 9%): 16%
- effector T (TE) cells in CD8+ CAR-T-cells (human CAR-T-cells [2]; 3 days, after 24 hour treatment, n=3, control/vehicle 35%): 23%
- CCR7+ TCM, mean (human CAR-T-cells [2]; CD8+ CAR-T, pre-treatment, from 9%): 16%
- CCR7+ TE (human CAR-T-cells [2]; CD8+ CAR-T, pre-treatment, from 35%): 23%
- TCM or TE phenotype of CD4+ CAR-T-cells (human CAR-T-cells [2]; pre-treatment, 24 hrs and 3 days): did not have any effect
- TREG proportions (CD4+CD25+FoxP3+) in CD4+ transduced CAR-T-cells (human CAR-T-cells [2]; pre-treatment, low concentrations): reduced
- enrichment of proteins associated with interferon signalling and anti-viral activity (human CAR-T-cells [3]): increased enrichment
- proteins associated with metabolism and RNA processing (human CAR-T-cells [3]): enriched
- ratio of CD4:CD8 T-cells (murine CAR-T-cells; TCN-P conditioning during CAR-T manufacturing, prior to administration): unchanged
- central memory CD8+ CAR-T-cells (CD44+ CD62L+) (murine CAR-T-cells; TCN-P preconditioning during CAR-T manufacturing): significant enrichment
- tumour control / tumour killing, tumour sizes until day 14 (MC-38-hHer2; 25 mg/kg TCN-P adjuvant every 3 days following Her2-targeting CAR-T administration): significantly improved
- median survival duration (MC-38-hHer2; TCN-P 25 mg/Kg, 20×10^6 CAR-T-cells, control group 15 days): 20 days
- anti-tumour effect (tumour growth) (MC-38-hHer2; TCN-P alone, 5, 25 or 50 mg/Kg i.p. every 3-4 days): dosage dependent anti-tumour effect; also recorded: strong anti-tumour effect
- tolerability by transduced T-cells (murine T-cells): well-tolerated
